Measurements from PubChem BioAssay AID248 (DTP/NCI, 2004).
Values joined by “and” are separate entries in the source; they are usually repeats but may differ in a detail not shown here. Equal entries are not always repeated. Inconclusive results and toxic doses are left out. Rule as the data show it: active = T/C of 150% or more; inactive = T/C below 125%.

Test system: L1210 leukemia ip in BDF1 mice, survival T/C
Test: NCI In Vivo Anticancer Drug Screen. Data for tumor model L1210 Leukemia (intraperitoneal) in B6D2F1 (BDF1) mice
Details: endpoint: mean survival time, higher = longer survival
Summary of the method: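 Transplantable tumor model; survival measured in treated vs vehicle control mice. Value = treated/control.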

[1] = dose: 75.0 mg/kg/injection, schedule: Q01DX001 (ip), vehicle: saline
[2] = dose: 150.0 mg/kg/injection, schedule: Q01DX001 (ip), vehicle: saline
[3] = dose: 25.0 mg/kg/injection, schedule: Q01DX009 (ip), vehicle: saline
[4] = dose: 50.0 mg/kg/injection, schedule: Q01DX009 (ip), vehicle: saline
[5] = dose: 100.0 mg/kg/injection, schedule: Q01DX001 (ip), vehicle: saline
[6] = dose: 100.0 mg/kg/injection, schedule: Q01DX009 (ip), vehicle: saline
[7] = dose: 100.0 mg/kg/injection, schedule: Q01DX009 (ip), vehicle: saline with Tween-80
[8] = dose: 200.0 mg/kg/injection, schedule: Q01DX009 (ip), vehicle: saline with Tween-80
[9] = dose: 100.0 mg/kg/injection, schedule: Q01DX009 (ip), vehicle: Klucel (hydroxypropylcellulose) (HPC)
[10] = dose: 400.0 mg/kg/injection, schedule: Q01DX009 (ip), vehicle: saline with Tween-80
[11] = dose: 25.0 mg/kg/injection, schedule: Q04DX003 (ip), vehicle: saline
[12] = dose: 50.0 mg/kg/injection, schedule: Q04DX003 (ip), vehicle: saline
[13] = dose: 100.0 mg/kg/injection, schedule: Q04DX003 (ip), vehicle: saline
[14] = dose: 200.0 mg/kg/injection, schedule: Q01DX001 (ip), vehicle: saline
[15] = dose: 400.0 mg/kg/injection, schedule: Q01DX001 (ip), vehicle: saline
[16] = dose: 100.0 mg/kg/injection, schedule: Q01DX001 (ip), vehicle: Klucel (hydroxypropylcellulose) (HPC)
[17] = dose: 200.0 mg/kg/injection, schedule: Q01DX001 (ip), vehicle: Klucel (hydroxypropylcellulose) (HPC)
[18] = dose: 400.0 mg/kg/injection, schedule: Q01DX001 (ip), vehicle: Klucel (hydroxypropylcellulose) (HPC)
[19] = dose: 100.0 mg/kg/injection, schedule: Q04DX003 (ip), vehicle: Klucel (hydroxypropylcellulose) (HPC)
[20] = dose: 200.0 mg/kg/injection, schedule: Q01DX009 (ip), vehicle: Klucel (hydroxypropylcellulose) (HPC)
[21] = dose: 200.0 mg/kg/injection, schedule: Q04DX003 (ip), vehicle: Klucel (hydroxypropylcellulose) (HPC)
[22] = dose: 400.0 mg/kg/injection, schedule: Q01DX009 (ip), vehicle: Klucel (hydroxypropylcellulose) (HPC)
[23] = dose: 400.0 mg/kg/injection, schedule: Q04DX003 (ip), vehicle: Klucel (hydroxypropylcellulose) (HPC)
[24] = dose: 200.0 mg/kg/injection, schedule: Q01DX009 (ip), vehicle: saline

Measured: T/C

N=C(N)CNC(=O)c1ccccc1C(=O)O
inactive: dose: 19.0 mg/kg/injection, schedule: Q01DX009 (ip), vehicle: saline 100 % of control | dose: 38.0 mg/kg/injection, schedule: Q01DX009 (ip), vehicle: saline 92 % of control | [1] 103 % of control | dose: 75.0 mg/kg/injection, schedule: Q01DX009 (ip), vehicle: saline 96 % of control | [2] 107 % of control | dose: 150.0 mg/kg/injection, schedule: Q01DX009 (ip), vehicle: saline 100 % of control | dose: 300.0 mg/kg/injection, schedule: Q01DX001 (ip), vehicle: saline 92 % of control

CCCCN1CC1(C)C (stereo not drawn)
inactive: [3] 105 % of control | [4] 105 % of control | [5] 98 % of control | [6] 106 % of control

CC(C)(C)C(C)(O)C(=O)O (stereo not drawn)
inactive: dose: 50.0 mg/kg/injection, schedule: Q01DX009 (ip), vehicle: saline with Tween-80 93 % of control | [7] 97 % of control | [8] 93 % of control

Cc1cc(NC(=S)Nc2ccccc2)c(NC(=S)Nc2ccccc2)cc1C
inactive: dose: 12.5 mg/kg/injection, schedule: Q01DX005 (ip), vehicle: Klucel (hydroxypropylcellulose) (HPC) 103 % of control | dose: 25.0 mg/kg/injection, schedule: Q01DX005 (ip), vehicle: Klucel (hydroxypropylcellulose) (HPC) 87 % of control | dose: 25.0 mg/kg/injection, schedule: Q01DX009 (ip), vehicle: Klucel (hydroxypropylcellulose) (HPC) 96 % of control | dose: 50.0 mg/kg/injection, schedule: Q01DX005 (ip), vehicle: Klucel (hydroxypropylcellulose) (HPC) 103 % of control | dose: 50.0 mg/kg/injection, schedule: Q01DX009 (ip), vehicle: Klucel (hydroxypropylcellulose) (HPC) 96 % of control | dose: 100.0 mg/kg/injection, schedule: Q01DX005 (ip), vehicle: Klucel (hydroxypropylcellulose) (HPC) 97 % of control and 101 % of control | [9] 93 % of control | dose: 150.0 mg/kg/injection, schedule: Q01DX009 (ip), vehicle: Klucel (hydroxypropylcellulose) (HPC) 97 % of control | dose: 335.0 mg/kg/injection, schedule: Q01DX009 (ip), vehicle: Klucel (hydroxypropylcellulose) (HPC) 90 % of control | dose: 400.0 mg/kg/injection, schedule: Q01DX005 (ip), vehicle: Klucel (hydroxypropylcellulose) (HPC) 101 % of control

N#CC(CC(=O)c1ccc(Cl)cc1)c1ccccc1 (stereo not drawn)
inactive: [7] 91 % of control | [8] 96 % of control | [10] 91 % of control

O=C(c1ccccc1)c1ccc(Br)cc1O
inactive: dose: 100.0 mg/kg/injection, schedule: Q01DX001 (ip), vehicle: carboxymethylcellulose (CMC) 105 % of control | dose: 200.0 mg/kg/injection, schedule: Q01DX001 (ip), vehicle: carboxymethylcellulose (CMC) 98 % of control | dose: 400.0 mg/kg/injection, schedule: Q01DX001 (ip), vehicle: carboxymethylcellulose (CMC) 100 % of control

NC(Cc1ccccc1)c1nn[nH]n1 (stereo not drawn)
inactive: dose: 55.0 mg/kg/injection, schedule: Q01DX Z (ip), vehicle: methylcellulose (MC) 93 % of control | dose: 83.0 mg/kg/injection, schedule: Q01DX Z (ip), vehicle: methylcellulose (MC) 110 % of control

CNC(C)Cc1ccccc1OC (stereo not drawn)
inactive: [11] 103 % of control | [12] 101 % of control | [13] 92 % of control

c1ccc2c(c1)NC(c1cccc3ccccc13)S2 (stereo not drawn)
inactive: [5] 94 % of control | [14] 100 % of control | [15] 94 % of control

NC(=NCCCC(NC(=O)OCc1ccccc1)C(=O)NC1C(CO)OC(n2cnc3c(N)ncnc32)C1O)N[N+](=O)[O-] (stereo not drawn)
inactive: dose: 50.0 mg/kg/injection, schedule: Q01DX001 (ip), vehicle: saline 90 % of control | [5] 95 % of control | [14] 93 % of control

CCOC(=O)CCC(NC(=O)c1ccccc1NC)C(=O)OCC (stereo not drawn)
inactive: [7] 94 % of control | [8] 92 % of control | [10] 101 % of control

Cc1ccc2c(c1)C(c1ccccc1)=C(NC1CCCCC1)C2=O
inactive: [16] 87 % of control | [17] 91 % of control | [18] 92 % of control

CCOCCOC(=O)c1ccc(C(N)=NC)cc1
inactive: [5] 91 % of control | [14] 94 % of control | [15] 94 % of control

CSC12OCC(O1)C1OC(C)(C)OC(C=O)C1O2 (stereo not drawn)
inactive: dose: 50.0 mg/kg/injection, schedule: Q04DX002 (ip), vehicle: saline 92 % of control | dose: 100.0 mg/kg/injection, schedule: Q04DX002 (ip), vehicle: saline 95 % of control

COc1ccccc1C(=O)NC(=S)Nc1ccc(Cl)c(Cl)c1
inactive: [9] 96 % of control and 87 % of control | dose: 100.0 mg/kg/injection, schedule: Q04DX002 (ip), vehicle: Klucel (hydroxypropylcellulose) (HPC) 95 % of control and 88 % of control | [19] 94 % of control | [17] 86 % of control | [20] 96 % of control and 106 % of control | dose: 200.0 mg/kg/injection, schedule: Q04DX002 (ip), vehicle: Klucel (hydroxypropylcellulose) (HPC) 98 % of control and 91 % of control | [21] 92 % of control | [18] 107 % of control | [22] 102 % of control | dose: 400.0 mg/kg/injection, schedule: Q04DX002 (ip), vehicle: Klucel (hydroxypropylcellulose) (HPC) 98 % of control and 91 % of control | [23] 102 % of control

OC(CN1CCCC1)c1cc2cc(Br)ccc2s1 (stereo not drawn)
inactive: [5] 107 % of control

CC(C)NC(=O)CCl
inactive: [3] 96 % of control | [11] 90 % of control | [4] 91 % of control | [12] 92 % of control | [6] 98 % of control | [13] 102 % of control and 92 % of control

CC[N+](CC)(CC)CCNC(C)=O
inactive: [6] 111 % of control | [24] 100 % of control | dose: 400.0 mg/kg/injection, schedule: Q01DX009 (ip), vehicle: saline 105 % of control

Cc1ccc(C(C)C)c2sc(=N)oc12
inactive: [19] 104 % of control | [21] 103 % of control | [23] 98 % of control

Cc1ccc(Br)c(Br)c1
inactive: [4] 97 % of control | [6] 87 % of control | [24] 111 % of control

CC(C)(C)NC(=O)Oc1ccc(-c2ccccc2)cc1
inactive: [9] 99 % of control | [20] 95 % of control | [22] 95 % of control

CCOP(=O)(OCC)Oc1cc(C)c(SC)c(C)c1
inactive: [1] 89 % of control | [2] 101 % of control

S=C(c1ccccc1Cl)N1CCOCC1
inactive: [5] 104 % of control | [14] 102 % of control | [15] 98 % of control

Nc1ccc(Cc2[nH]c(=O)[nH]c(=O)c2Br)cc1[N+](=O)[O-]
inactive: dose: 25.0 mg/kg/injection, schedule: Q01DX001 (ip), vehicle: Klucel (hydroxypropylcellulose) (HPC) 103 % of control | dose: 50.0 mg/kg/injection, schedule: Q01DX001 (ip), vehicle: Klucel (hydroxypropylcellulose) (HPC) 95 % of control | [16] 93 % of control

CC(=O)OCCn1c(C)nc2cc(Cl)c(Cl)cc21
inactive: dose: 100.0 mg/kg/injection, schedule: Q04DX003 (ip), vehicle: acetone 94 % of control | dose: 200.0 mg/kg/injection, schedule: Q04DX003 (ip), vehicle: acetone 98 % of control | dose: 400.0 mg/kg/injection, schedule: Q04DX003 (ip), vehicle: acetone 93 % of control

CCCCCCCCC(C(O)c1ccccc1)C(O)(C(F)(F)F)C(F)(F)F (stereo not drawn)
inactive: [7] 95 % of control | [8] 105 % of control | [10] 97 % of control

CC(/C=N/O)=C1C=CC=C1
inactive: [16] 94 % of control | [9] 98 % of control | [19] 102 % of control | [17] 92 % of control | [20] 100 % of control | [21] 98 % of control | [18] 97 % of control | [22] 105 % of control | [23] 102 % of control

O=C(C[n+]1cccc(CO)c1)c1ccc(-c2ccc(C(=O)C[n+]3cccc(CO)c3)cc2)cc1
inactive: dose: 0.05 mg/kg/injection, schedule: Q04DX003 (ip), vehicle: saline 105 % of control | dose: 0.1 mg/kg/injection, schedule: Q04DX003 (ip), vehicle: saline 100 % of control | dose: 0.2 mg/kg/injection, schedule: Q04DX003 (ip), vehicle: saline 108 % of control
